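Cultured in 96-well plates, cells were exposed to test compound for 48 hours across five concentrations. Abbreviation: GI50, concentration required for 50% inhibition of growth.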 Calls of active or inactive are those of the source. No stated cut-off is given here; in the data, active = GI50 up to about 1.1 µM and inactive = higher.
Key:
Assay in all cases: NCI anticancer screen, dose series, 48 h
SF-539 = tested on: SF-539
HT-29 = tested on: HT-29
HOP-62 = tested on: HOP-62
HOP-18 = tested on: HOP-18
UACC-62 = tested on: UACC-62
SNB-78 = tested on: SNB-78
COLO 205 = tested on: COLO 205
UO-31 = tested on: UO-31
NCI-H522 = tested on: NCI-H522
IGROV-1 = tested on: IGROV-1
786-0 = tested on: 786-0
TK-10 = tested on: TK-10
Malme-3M = tested on: Malme-3M
A498 = tested on: A498
HCT-15 = tested on: HCT-15
NCI-H23 = tested on: NCI-H23
LXFL 529 = tested on: LXFL 529
ACHN = tested on: ACHN
UACC-257 = tested on: UACC-257
KM-20L2 = tested on: KM-20L2
SF-268 = tested on: SF-268
NCI-H226 = tested on: NCI-H226
SK-OV-3 = tested on: SK-OV-3
SK-MEL-2 = tested on: SK-MEL-2
SF-295 = tested on: SF-295
HOP-92 = tested on: HOP-92
SW-620 = tested on: SW-620
A549 = tested on: A549
M19-MEL = tested on: M19-MEL
HCC 2998 = tested on: HCC 2998
CCRF-CEM = tested on: CCRF-CEM
MOLT-4 = tested on: MOLT-4
SN12C = tested on: SN12C
NCI-H460 = tested on: NCI-H460
U-251 = tested on: U-251
RPMI-8226 = tested on: RPMI-8226
DLD-1 = tested on: DLD-1
OVCAR-5 = tested on: OVCAR-5
RXF 393 = tested on: RXF 393
DMS-273 = tested on: DMS-273
CAKI-1 = tested on: CAKI-1
RXF 631 = tested on: RXF 631
KM12 = tested on: KM12
SNB-19 = tested on: SNB-19
OVCAR-4 = tested on: OVCAR-4
HL-60 = tested on: HL-60
EKVX = tested on: EKVX
OVCAR-3 = tested on: OVCAR-3
SNB-75 = tested on: SNB-75
LOX IMVI = tested on: LOX IMVI
DMS-114 = tested on: DMS-114
M14 = tested on: M14
OVCAR-8 = tested on: OVCAR-8
K562 = tested on: K562
HCT-116 = tested on: HCT-116
SR = tested on: SR
SK-MEL-28 = tested on: SK-MEL-28
SK-MEL-5 = tested on: SK-MEL-5

Measured: GI50

COC(=O)C(C(=O)C(=O)Nc1c(Cl)cc([N+](=O)[O-])cc1Cl)c1nc2cc(C)c(C)cc2nc1O (configuration not stated)
> 100 µM: HCT-15
inactive: SF-539 > 100 µM | HT-29 > 100 µM | HOP-62 > 100 µM | HOP-18 72.6 µM | UACC-62 59.2 µM | SNB-78 > 100 µM | COLO 205 > 100 µM | UO-31 > 100 µM | NCI-H522 > 100 µM | IGROV-1 > 100 µM | 786-0 > 100 µM | TK-10 > 100 µM | Malme-3M > 100 µM | A498 44.9 µM | NCI-H23 > 100 µM | LXFL 529 > 100 µM | ACHN > 100 µM | UACC-257 > 100 µM | KM-20L2 > 100 µM | SF-268 > 100 µM | NCI-H226 > 100 µM | SK-OV-3 > 100 µM | SK-MEL-2 > 100 µM | SF-295 > 100 µM | HOP-92 47.8 µM | SW-620 > 100 µM | A549 > 100 µM | M19-MEL > 100 µM | HCC 2998 > 100 µM | CCRF-CEM > 100 µM | MOLT-4 > 100 µM | SN12C > 100 µM | NCI-H460 > 100 µM | U-251 > 100 µM | RPMI-8226 > 100 µM | DLD-1 > 100 µM | OVCAR-5 > 100 µM | RXF 393 > 100 µM | DMS-273 > 100 µM | CAKI-1 > 100 µM | RXF 631 > 100 µM | KM12 > 100 µM | SNB-19 > 100 µM | OVCAR-4 > 100 µM | HL-60 > 100 µM | EKVX 38.9 µM | OVCAR-3 > 100 µM | SNB-75 86.5 µM | LOX IMVI > 100 µM | DMS-114 76.4 µM | M14 > 100 µM | OVCAR-8 > 100 µM | K562 > 100 µM | HCT-116 > 100 µM

CC(C)(C)C1(O)Cc2ccccc2C(=O)O1 (configuration not stated)
> 100 µM: HCT-15
inactive: SF-539 > 100 µM | HT-29 > 100 µM | SR > 100 µM | HOP-62 > 100 µM | HOP-18 > 100 µM | UACC-62 > 100 µM | SNB-78 > 100 µM | COLO 205 > 100 µM | UO-31 > 100 µM | NCI-H522 > 100 µM | IGROV-1 > 100 µM | 786-0 > 100 µM | TK-10 > 100 µM | Malme-3M > 100 µM | A498 > 100 µM | SK-MEL-28 > 100 µM | NCI-H23 > 100 µM | LXFL 529 > 100 µM | ACHN > 100 µM | UACC-257 > 100 µM | KM-20L2 > 100 µM | SF-268 > 100 µM | NCI-H226 > 100 µM | SK-OV-3 > 100 µM | SK-MEL-2 > 100 µM | SF-295 > 100 µM | HOP-92 > 100 µM | SW-620 > 100 µM | A549 > 100 µM | M19-MEL > 100 µM | HCC 2998 > 100 µM | CCRF-CEM > 100 µM | MOLT-4 > 100 µM | SN12C > 100 µM | NCI-H460 > 100 µM | U-251 > 100 µM | DLD-1 > 100 µM | OVCAR-5 > 100 µM | RXF 393 > 100 µM | DMS-273 > 100 µM | CAKI-1 > 100 µM | RXF 631 > 100 µM | KM12 > 100 µM | SNB-19 > 100 µM | OVCAR-4 > 100 µM | HL-60 > 100 µM | EKVX > 100 µM | OVCAR-3 > 100 µM | SNB-75 > 100 µM | LOX IMVI > 100 µM | DMS-114 > 100 µM | SK-MEL-5 > 100 µM | M14 > 100 µM | OVCAR-8 > 100 µM | K562 > 100 µM | HCT-116 > 100 µM
